Reference: ChEMBL document CHEMBL1201862, “PubChem BioAssay data set” (2004)
Calls of active or inactive are those of the source.

Tests used:
Cytochrome P450 2D6 = Cytochrome P450 2D6 (Homo sapiens, UniProt P10635);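 further: CYP2D6 member of a cytochrome P450 panel assay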
Cytochrome P450 2C19 = Cytochrome P450 2C19 (Homo sapiens, UniProt P33261); assay: Cytochrome panel assay with activity outcomes. Panel member name: p450-cyp2c19 Compounds with AC50 equal or less than 10 uM are considered active; format: functional; settings: read-out: AC50
Cytochrome P450 2C19, sequence (P33261 whole entry): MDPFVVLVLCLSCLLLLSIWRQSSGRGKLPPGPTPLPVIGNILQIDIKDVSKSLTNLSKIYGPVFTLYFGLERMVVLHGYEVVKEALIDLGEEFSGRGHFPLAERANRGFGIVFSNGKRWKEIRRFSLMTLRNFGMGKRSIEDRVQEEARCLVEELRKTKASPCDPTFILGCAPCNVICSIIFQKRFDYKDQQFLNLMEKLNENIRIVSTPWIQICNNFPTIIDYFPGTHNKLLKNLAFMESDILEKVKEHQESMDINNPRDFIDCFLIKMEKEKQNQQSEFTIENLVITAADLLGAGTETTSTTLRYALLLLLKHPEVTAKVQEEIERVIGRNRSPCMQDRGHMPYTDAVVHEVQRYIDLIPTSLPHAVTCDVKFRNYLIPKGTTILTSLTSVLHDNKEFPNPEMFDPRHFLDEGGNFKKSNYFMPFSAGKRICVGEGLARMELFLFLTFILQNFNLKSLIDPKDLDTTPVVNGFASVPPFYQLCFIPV

Cytochrome P450 2C9 = Cytochrome P450 2C9 (Homo sapiens, UniProt P11712)
Cytochrome P450 2C9, sequence (P11712 whole entry): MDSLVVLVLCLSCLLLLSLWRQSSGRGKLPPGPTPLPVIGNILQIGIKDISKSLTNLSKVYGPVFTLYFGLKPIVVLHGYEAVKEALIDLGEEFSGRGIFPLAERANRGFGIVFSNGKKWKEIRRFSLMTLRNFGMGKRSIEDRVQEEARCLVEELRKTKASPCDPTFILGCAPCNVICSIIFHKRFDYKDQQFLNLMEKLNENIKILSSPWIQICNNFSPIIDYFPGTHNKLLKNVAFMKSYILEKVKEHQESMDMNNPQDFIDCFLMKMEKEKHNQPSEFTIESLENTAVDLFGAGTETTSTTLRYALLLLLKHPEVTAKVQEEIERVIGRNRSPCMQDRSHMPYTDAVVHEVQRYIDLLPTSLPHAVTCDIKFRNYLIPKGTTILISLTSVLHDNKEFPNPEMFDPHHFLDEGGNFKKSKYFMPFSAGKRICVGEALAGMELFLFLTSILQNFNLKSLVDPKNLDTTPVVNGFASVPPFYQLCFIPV

Cytochrome P450 1A2 = target: T1, Cytochrome P450 1A2 (Homo sapiens, UniProt P05177);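 further: PubChem cytochrome P450 panel assay, CYP1A2 panel member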
T1 sequence (P05177 whole entry): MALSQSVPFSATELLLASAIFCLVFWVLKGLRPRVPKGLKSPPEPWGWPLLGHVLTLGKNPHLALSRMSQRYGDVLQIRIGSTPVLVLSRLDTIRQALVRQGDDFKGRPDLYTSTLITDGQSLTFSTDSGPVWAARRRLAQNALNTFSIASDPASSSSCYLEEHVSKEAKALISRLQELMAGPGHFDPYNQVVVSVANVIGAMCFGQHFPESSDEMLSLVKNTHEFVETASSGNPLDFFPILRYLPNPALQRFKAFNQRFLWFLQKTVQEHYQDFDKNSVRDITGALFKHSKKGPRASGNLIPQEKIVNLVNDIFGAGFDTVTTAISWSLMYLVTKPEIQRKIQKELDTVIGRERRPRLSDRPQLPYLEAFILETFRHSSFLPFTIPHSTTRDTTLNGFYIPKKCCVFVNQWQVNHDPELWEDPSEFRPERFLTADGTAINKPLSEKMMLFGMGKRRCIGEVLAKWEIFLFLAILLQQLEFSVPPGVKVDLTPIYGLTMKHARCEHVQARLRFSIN

[1] = target: Bifunctional protein GlmU (Mycobacterium tuberculosis, UniProt P9WMN3); assay: Inhibitors of Mycobacterial Glucosamine-1-phosphate acetyl transferase (GlmU). Secondary screen.; design: species or system Mycobacterium tuberculosis H37Rv
Bifunctional protein GlmU, sequence (P9WMN3 whole entry): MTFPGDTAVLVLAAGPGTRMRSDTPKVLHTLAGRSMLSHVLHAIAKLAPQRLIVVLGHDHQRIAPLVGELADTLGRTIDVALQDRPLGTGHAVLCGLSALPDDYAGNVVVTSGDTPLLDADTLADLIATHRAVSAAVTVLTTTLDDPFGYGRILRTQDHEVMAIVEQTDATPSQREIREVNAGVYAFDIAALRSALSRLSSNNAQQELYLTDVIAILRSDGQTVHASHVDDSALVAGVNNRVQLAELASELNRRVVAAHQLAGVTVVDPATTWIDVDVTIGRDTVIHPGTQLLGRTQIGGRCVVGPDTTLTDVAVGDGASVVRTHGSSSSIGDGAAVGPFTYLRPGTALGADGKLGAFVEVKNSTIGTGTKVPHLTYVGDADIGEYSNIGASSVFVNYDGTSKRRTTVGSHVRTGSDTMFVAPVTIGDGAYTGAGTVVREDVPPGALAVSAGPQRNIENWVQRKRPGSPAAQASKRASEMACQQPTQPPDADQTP

Caspase-6 = target: T2, Caspase-6 (Homo sapiens, UniProt P55212); assay: inhibition of CASP6 peptide cleavage – biochemical, VEID-R110 fluorescence, cherry-pick, dose response (AID 720632)
T2 sequence (P55212 whole entry): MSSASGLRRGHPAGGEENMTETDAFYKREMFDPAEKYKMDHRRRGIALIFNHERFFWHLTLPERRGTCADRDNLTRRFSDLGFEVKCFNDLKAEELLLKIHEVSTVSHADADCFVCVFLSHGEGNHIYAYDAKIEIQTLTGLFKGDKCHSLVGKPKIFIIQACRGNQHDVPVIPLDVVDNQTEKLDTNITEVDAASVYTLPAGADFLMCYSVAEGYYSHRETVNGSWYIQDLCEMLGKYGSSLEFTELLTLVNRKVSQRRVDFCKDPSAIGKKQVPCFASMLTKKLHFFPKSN

[2] = luciferase reporter signal suppression in cells – H4 neuroglioma cells, luminescence, dose response (AID 1990); format: functional, cell-based
[3] = target: T3, Replicative DNA helicase DnaB (Mycobacterium tuberculosis, UniProt P9WMR3); assay: DnaB intein splicing inhibitors, dose response, biochemical, cell-free fluorescence (AID 449749); format: functional
T3 sequence (P9WMR3 whole entry): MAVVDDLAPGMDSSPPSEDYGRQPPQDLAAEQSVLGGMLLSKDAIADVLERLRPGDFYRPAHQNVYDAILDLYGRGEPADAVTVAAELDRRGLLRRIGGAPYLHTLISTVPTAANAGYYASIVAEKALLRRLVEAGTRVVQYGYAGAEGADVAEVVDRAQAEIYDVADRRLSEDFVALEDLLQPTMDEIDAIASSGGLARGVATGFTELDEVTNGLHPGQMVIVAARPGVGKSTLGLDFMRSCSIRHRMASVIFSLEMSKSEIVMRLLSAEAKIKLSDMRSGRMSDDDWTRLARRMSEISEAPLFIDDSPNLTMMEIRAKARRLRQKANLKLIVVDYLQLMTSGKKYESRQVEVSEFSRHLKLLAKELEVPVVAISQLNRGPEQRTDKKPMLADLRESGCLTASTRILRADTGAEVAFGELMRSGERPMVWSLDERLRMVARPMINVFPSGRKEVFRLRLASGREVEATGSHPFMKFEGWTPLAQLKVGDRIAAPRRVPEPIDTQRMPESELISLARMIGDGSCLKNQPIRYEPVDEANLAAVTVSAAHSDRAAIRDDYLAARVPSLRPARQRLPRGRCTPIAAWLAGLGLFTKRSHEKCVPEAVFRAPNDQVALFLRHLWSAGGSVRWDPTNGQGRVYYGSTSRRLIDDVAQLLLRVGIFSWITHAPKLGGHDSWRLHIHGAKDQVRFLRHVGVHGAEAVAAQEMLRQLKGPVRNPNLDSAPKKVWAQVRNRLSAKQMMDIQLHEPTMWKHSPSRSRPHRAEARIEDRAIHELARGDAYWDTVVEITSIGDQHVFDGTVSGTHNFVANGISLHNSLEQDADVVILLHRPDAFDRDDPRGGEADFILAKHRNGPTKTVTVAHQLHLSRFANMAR

INS1 = assay: INS-1E survival protection against cytokine death – cell-based, luminescence, retest, dose response (AID 449756); format: functional; settings: Rattus norvegicus;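 further: cell death triggered by IL-1 beta plus TNF-alpha plus IFN-gamma mixture; protective hits raise ATP signal compared with cytokine alone wells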
[4] = alpha-synuclein stem-loop luciferase translation blockers – H4 neuroglioma cells, luminescence, confirmation (AID 1988); format: functional, cell-based
[5] = fluconazole-exposed Candida albicans growth modulators – fluorescence, retest, confirmation (AID 2467); format: functional, cell-based
[6] = NIH-3T3 fibroblast cytotoxicity, dose response, cytotoxicity control, cell-based, fluorescence, Alamar Blue, secondary assay (AID 2327); format: functional;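 further: NIH-3T3 mouse fibroblasts cultured with fluconazole at 8 µg/mL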
[7] = Luminescence Cell-Based Dose Response HTS to Identify Inhibitors of 5'UTR Stem-Loop Driven Prion Protein mRNA Translation in H4 Neuroglioblastoma Cells. [Related pubchem assays: 1827 (Project Summary), 1813 (Primary HTS)]; format: functional
Protein RecA = target: T4, Protein RecA (Mycobacterium tuberculosis, UniProt P9WHJ3); assay: Fluorescence Cell-Free Homogeneous Dose Retest to Identify Inhibitors of RecA-Intein Splicing Activity. [Related pubchem assays (depositor defined):AID2097, AID2223, AID489010, AID492950]; format: functional
T4 sequence (P9WHJ3 whole entry): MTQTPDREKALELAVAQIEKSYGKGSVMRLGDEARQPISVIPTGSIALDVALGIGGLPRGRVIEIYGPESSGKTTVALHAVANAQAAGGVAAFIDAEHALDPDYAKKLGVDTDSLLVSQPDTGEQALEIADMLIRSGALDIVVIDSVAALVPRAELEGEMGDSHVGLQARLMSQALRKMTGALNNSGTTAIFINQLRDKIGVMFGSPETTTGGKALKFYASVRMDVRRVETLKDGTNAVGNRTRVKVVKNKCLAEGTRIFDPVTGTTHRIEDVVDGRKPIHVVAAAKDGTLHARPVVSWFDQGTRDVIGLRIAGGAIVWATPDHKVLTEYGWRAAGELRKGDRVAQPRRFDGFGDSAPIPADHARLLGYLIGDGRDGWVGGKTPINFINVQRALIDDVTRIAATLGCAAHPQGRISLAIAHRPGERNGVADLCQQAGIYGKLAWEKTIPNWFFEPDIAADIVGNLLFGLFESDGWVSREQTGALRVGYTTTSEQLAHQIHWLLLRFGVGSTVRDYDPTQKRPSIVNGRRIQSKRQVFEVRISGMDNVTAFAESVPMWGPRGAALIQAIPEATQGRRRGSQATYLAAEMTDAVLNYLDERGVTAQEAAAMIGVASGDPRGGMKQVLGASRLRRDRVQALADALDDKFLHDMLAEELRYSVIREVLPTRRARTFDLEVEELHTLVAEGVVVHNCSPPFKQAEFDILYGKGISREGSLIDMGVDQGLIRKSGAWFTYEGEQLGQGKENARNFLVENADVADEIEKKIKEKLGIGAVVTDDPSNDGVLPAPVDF

[8] = target: Lysine-specific demethylase 4C (Homo sapiens, UniProt Q9H3R0); assay: inhibition of JMJD2C H3K9me3 demethylation – biochemical, DELFIA europium, cherry-picked samples, dose response (AID 488835); format: functional
Lysine-specific demethylase 4C, sequence (Q9H3R0 whole entry): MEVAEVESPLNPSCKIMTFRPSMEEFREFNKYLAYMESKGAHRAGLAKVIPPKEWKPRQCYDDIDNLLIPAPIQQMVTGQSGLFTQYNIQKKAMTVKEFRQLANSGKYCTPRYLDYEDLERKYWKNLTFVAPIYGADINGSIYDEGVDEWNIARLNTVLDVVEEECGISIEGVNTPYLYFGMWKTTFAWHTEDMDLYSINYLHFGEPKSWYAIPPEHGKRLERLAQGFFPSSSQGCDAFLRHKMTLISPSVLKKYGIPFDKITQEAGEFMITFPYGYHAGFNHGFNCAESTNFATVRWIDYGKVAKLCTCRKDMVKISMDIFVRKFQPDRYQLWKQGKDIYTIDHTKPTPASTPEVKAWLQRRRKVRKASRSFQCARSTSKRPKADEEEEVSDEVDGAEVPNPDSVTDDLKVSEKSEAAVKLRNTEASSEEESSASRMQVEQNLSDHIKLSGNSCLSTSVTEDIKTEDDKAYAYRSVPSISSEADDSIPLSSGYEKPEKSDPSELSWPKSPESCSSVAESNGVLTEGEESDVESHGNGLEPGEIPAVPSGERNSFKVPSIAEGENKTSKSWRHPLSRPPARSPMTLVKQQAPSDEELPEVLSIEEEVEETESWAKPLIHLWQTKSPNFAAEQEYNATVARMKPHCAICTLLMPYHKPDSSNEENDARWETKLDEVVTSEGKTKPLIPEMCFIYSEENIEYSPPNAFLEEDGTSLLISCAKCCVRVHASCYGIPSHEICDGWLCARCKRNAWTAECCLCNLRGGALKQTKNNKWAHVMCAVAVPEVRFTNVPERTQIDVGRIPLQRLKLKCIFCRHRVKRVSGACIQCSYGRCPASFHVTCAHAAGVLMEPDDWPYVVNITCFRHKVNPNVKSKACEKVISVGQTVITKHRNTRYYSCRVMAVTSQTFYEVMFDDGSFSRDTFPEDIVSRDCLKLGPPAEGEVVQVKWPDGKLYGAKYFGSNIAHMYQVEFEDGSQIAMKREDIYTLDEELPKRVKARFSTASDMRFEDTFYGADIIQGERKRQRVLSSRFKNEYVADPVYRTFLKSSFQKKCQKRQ

[9] = target: Induced myeloid leukemia cell differentiation protein Mcl-1 (Homo sapiens, UniProt Q07820); format: functional
Induced myeloid leukemia cell differentiation protein Mcl-1, sequence (Q07820 whole entry): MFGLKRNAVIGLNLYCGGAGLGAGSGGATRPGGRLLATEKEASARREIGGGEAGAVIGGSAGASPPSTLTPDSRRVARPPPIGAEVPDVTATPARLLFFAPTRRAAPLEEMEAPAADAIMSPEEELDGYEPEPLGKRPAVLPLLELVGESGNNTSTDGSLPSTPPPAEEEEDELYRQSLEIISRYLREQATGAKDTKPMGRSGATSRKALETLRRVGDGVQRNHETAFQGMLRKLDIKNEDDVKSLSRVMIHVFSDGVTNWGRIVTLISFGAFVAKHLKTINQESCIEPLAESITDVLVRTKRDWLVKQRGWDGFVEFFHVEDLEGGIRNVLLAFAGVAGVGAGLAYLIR

[10] = target: Heat shock protein HSP 90-alpha (Homo sapiens, UniProt P07900); format: functional, organism-based
[11] = reduction of Shn3 3'UTR-driven luciferase in osteoblasts – cell-based, Clone20 osteoblasts, firefly luciferase, cherry-picked, dose response (AID 624132); format: functional;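 further: firefly luciferase luminescence from reporter carrying the Shn3 3'UTR in osteoblasts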
[12] = NIH3T3 cell viability loss – ATP luminescence, mouse fibroblasts, counter-screen, dose response (AID 2010); format: functional, cell-based;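 further: cells exposed to compound for about 90 hours before reading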
[13] = non-specific 3'UTR reporter inhibition in Clone20-Shn3RL – cell-based, Renilla luciferase, cherry-picked, counter-screen for Shn3 inhibitor project, dose response (AID 624133); format: functional
[14] = target: Nucleotide-binding oligomerization domain-containing protein 2 (Homo sapiens, UniProt Q9HC29); assay: inhibition of NOD2-driven NF-kB reporter – cell-based, luminescence, uHTS, HEK293 (AID 1566); format: functional
Nucleotide-binding oligomerization domain-containing protein 2, sequence (Q9HC29 whole entry, the tested form may be a part): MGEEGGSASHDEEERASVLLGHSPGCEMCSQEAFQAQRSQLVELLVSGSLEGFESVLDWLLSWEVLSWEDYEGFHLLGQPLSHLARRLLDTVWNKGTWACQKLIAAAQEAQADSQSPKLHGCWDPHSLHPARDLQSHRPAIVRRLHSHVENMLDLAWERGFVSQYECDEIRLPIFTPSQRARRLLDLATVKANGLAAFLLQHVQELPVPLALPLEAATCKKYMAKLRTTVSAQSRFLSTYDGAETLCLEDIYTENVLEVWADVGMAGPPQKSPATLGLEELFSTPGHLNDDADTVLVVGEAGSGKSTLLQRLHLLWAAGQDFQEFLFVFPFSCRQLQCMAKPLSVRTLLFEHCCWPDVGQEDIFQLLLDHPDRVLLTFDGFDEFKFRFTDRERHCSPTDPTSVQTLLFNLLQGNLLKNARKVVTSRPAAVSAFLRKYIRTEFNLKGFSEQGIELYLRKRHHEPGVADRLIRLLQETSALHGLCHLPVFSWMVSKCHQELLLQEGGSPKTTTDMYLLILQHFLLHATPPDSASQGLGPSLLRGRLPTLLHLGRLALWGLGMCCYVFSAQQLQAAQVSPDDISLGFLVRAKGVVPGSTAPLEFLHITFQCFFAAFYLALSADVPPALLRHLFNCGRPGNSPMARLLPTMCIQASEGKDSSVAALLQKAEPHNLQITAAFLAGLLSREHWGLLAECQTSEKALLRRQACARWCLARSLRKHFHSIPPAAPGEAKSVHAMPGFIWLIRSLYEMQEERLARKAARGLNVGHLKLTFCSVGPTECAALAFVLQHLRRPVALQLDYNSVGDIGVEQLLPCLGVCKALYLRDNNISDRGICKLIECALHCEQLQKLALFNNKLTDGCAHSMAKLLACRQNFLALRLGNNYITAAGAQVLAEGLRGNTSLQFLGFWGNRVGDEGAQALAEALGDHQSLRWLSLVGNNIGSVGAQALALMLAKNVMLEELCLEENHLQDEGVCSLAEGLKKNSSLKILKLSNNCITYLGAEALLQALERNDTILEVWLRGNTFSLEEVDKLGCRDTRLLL

[15] = Fluorescence-based cell-based high throughput dose response assay for inhibitors of the interaction of nucleotide-binding oligomerization domain containing 2 (NOD2) and the receptor-interacting serine-threonine kinase 2 (RIPK2).; format: functional; settings: Homo sapiens
[16] = general mammalian cell viability loss – inhibitor set, cherry-pick, set 2, cytotoxicity control for miR-122 modulator project, dose response (AID 720697); format: functional, cell-based
[17] = general mammalian cell viability loss – activator set, cherry-pick, cytotoxicity control for miR-122 modulator project, dose response (AID 720690); format: functional, cell-based;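 further: HEK293T human cells scored for general mammalian cytotoxicity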
[18] = Trypanosoma cruzi growth suppression in host cells – NIH3T3 host cells, beta-gal luminescence, confirmation (AID 2044); format: functional, cell-based;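 further: intracellular parasites grown in NIH/3T3 mouse fibroblasts as host cells; luminescent beta-galactosidase reporter signal from transgenic T. cruzi replicating inside host cells; inhibitors lower the luminescence signal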
Apelin receptor = Apelin receptor (Homo sapiens, UniProt P35414); assay: apelin receptor antagonists, arrestin read-out – cell-based, luminescent, enzyme-fragment complementation, selectivity assay for CCR6 antagonist project, SAR follow-up (AID 588359); format: functional
Apelin receptor, sequence (P35414 whole entry, the tested form may be a part): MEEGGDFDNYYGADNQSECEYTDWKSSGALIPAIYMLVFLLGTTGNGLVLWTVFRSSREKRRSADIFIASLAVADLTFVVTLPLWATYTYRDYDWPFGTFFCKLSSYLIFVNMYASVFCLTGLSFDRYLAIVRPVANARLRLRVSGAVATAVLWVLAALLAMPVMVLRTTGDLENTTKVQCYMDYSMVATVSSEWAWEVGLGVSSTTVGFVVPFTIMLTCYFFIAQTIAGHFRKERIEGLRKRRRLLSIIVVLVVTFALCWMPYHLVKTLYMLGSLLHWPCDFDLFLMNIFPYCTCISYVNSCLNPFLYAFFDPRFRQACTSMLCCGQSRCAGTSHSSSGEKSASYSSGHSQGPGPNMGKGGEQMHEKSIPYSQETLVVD

HEK293 [19] = assay: cells; format: functional, cell-based; settings: Homo sapiens
HEK293 [20] = assay: inhibition of NOD1-driven NF-kB reporter – cell-based, luminescence, uHTS, primary screen (AID 1578); format: functional; settings: Homo sapiens
[21] = activation of miR-122 Renilla sensor silencing – cell-based, Huh7 psiCHECK-miR122, Renilla luciferase, cherry-picked, dose response (AID 651956); format: functional;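 further: huh7 hepatoma cells stably carrying a psiCHECK-2 miR-122 sensor plasmid; renilla luciferase signal reporting endogenous miR-122 activity after 48 h compound exposure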
Beta-galactosidase = Beta-galactosidase (Escherichia coli, UniProt Q8VNN2); assay: detection-enzyme interference by beta-gal modulators – biochemical, E. coli enzyme, set 3, artefact control for CCR6 antagonist project, dose response (AID 504712); format: functional
HEK293 [22] = assay: cells; format: functional, cell-based; settings: Homo sapiens; remark: listed apart in the source
HEK293 [23] = assay: NOD2 signaling inhibitors in MDP-stimulated cells, cell-based, uHTS, luminescence (AID 2001); format: functional; settings: Homo sapiens
HEK293 [24] = assay: cells; format: functional, cell-based; settings: Homo sapiens; remark: listed apart in the source
[25] = loss of viability in HepG2 cells – cell-based, CellTiter-Glo, cherry-picked, cytotoxicity control for Shn3 inhibitor project, dose response (AID 624134); format: functional
[26] = target: FAD-linked sulfhydryl oxidase ALR (Homo sapiens, UniProt P55789); assay: ALR-catalysed DTT oxidation blockers – biochemical, H2O2 detection, luminescence, cherry-pick, dose response (AID 493248)
FAD-linked sulfhydryl oxidase ALR, sequence (P55789 whole entry): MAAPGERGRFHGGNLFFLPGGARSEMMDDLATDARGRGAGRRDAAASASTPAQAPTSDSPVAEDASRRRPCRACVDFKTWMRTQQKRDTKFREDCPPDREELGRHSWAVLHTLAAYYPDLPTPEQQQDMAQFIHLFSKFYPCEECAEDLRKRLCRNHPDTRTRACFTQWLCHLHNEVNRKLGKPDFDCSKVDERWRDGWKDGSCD

Cytochrome P450 2D6, sequence (P10635 whole entry): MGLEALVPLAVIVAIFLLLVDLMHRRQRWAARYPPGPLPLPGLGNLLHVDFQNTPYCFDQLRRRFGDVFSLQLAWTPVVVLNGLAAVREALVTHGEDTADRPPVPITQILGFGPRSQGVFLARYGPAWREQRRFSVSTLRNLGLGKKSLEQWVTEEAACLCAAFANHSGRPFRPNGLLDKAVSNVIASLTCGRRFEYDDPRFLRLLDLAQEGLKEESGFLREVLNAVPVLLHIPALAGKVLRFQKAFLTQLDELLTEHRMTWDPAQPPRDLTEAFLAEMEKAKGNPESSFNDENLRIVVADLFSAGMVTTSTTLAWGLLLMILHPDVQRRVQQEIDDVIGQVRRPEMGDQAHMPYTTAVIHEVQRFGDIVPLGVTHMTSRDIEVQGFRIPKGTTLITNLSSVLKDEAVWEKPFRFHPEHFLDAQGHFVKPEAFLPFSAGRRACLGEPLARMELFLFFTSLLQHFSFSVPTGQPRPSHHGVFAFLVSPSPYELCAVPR

COc1ccc(C(=O)Nc2cccc(-c3cnc4ccccc4n3)c2)cc1
AC50 (Cytochrome P450 2D6): inconclusive | AC50 (Cytochrome P450 2C19): 2.24 µM (inconclusive) | AC50 (Cytochrome P450 2C9): 1.78 µM (inconclusive)

CCc1ccc(N2CC(C(=O)N/N=C/c3cccc([N+](=O)[O-])c3)CC2=O)cc1 (stereo not drawn)
AC50 (Cytochrome P450 2D6): inconclusive | AC50 (Cytochrome P450 1A2): 3.16 µM (inconclusive) | AC50 (Cytochrome P450 2C19): 0.316 µM (inconclusive)

O=[N+]([O-])c1cc(/C=N/Nc2nc3ccccc3[nH]2)c(O)cc1O
IC50 [1]: 125 µM (active) | AC50 (Caspase-6): 5.37 µM (active) | EC50 [2]: 9.68 µM (inconclusive) | AC50 [3]: 4.22 µM (active) | AC50 (INS1): 0.483 µM (active) | EC50 [4]: 3.81 µM (active) | EC50 [5]: 2.33 µM (active) | EC50 [6]: > 150 µM (inactive) | EC50 [7]: 11.2 µM (active) | EC50 (Protein RecA): 6.73 µM (active) | AC50 [8]: 3.07 µM (active) | IC50 [9]: 6.08 µM (active)

Cc1ccc(S(=O)(=O)c2ccc([N+](=O)[O-])cn2)cc1
AC50 [10]: 4.18 µM (active) | AC50 [11]: 3.85 µM (active) | EC50 [12]: 3.42 µM (active) | AC50 [13]: 3.26 µM (active) | EC50 [14]: > 20 µM (inactive) | IC50 [15]: 6.33 µM (active) | AC50 [16]: 7.35 µM (active) | AC50 [17]: 4.36 µM (active) | EC50 [18]: 2.38 µM (active) | IC50 (Apelin receptor): 23.4 µM (inactive) | AC50 (INS1): > 260 µM (inactive) | IC50 (HEK293 [19]): > 20 µM (inactive) | EC50 (HEK293 [20]): 6.69 µM (active) | AC50 [21]: 10.6 µM (active) | IC50 (Beta-galactosidase): > 66.6 µM (inactive) | IC50 (HEK293 [22]): 5.37 µM (active) | IC50 (HEK293 [23]): 6.5 µM (active) | IC50 (HEK293 [24]): > 20 µM (inactive) | AC50 [25]: 12.1 µM (active) | AC50 [26]: 15.3 µM (active)
